The test system of data set [1] is immune organs (thymus and pancreas). The data set is described as follows: Weights of immune organs (organ indices). The class given is in vivo, ICR strain mice. The source says: The mice were sacrificed after the Serum hemolysinogenesis test above and the thymus and pancreas were collected and weighed.
For data set [2], the system named is serum hemolysinogenesis. The class given is in vivo, ICR strain mice. As to the method:
The method of administration in each group was the same as above (phagocytic function). However, on the 6th day after administration, 0.2 ml 3:5 (V/V) sheep red blood cell (RBC) suspension was injected i.p. into each mouse. 4 days later (day 10), blood was drawn from all animals and serum was prepared and then diluted 600 times. 1 ml diluted serum was mixed with 0.5 ml 10% sheep RBC suspension. N.S. was used as blank control. All samples were incubated at 37° C. for 30 minutes, and centrifuged (2000 rev/min) for 5 minutes. The supernatant was collected for measurement of OD540 and HC50 was calculated.

In data set [3] the test system is mouse sarcoma S180. The data set is described as follows: Mouse sarcoma S180 model, inhibition of tumor growth. The protocol: 50 female ICR strain mice, weighing 19–22 g, were randomly divided into 5 groups of 10 each. S180 sarcoma mass (about 2 mm^3 each) was transplanted subcutaneously into the right armpits of all animals following standard procedure. 3 test groups were given N-(12-methyl-tridecyl)hydrazine hydrochloride (Sample) at 0.1, 0.2, and 0.4 g/kg intragastrically (i.g.) daily for 11 days. The positive control group was given a single dose of cytoxan (CTX) i.g. (25 mg/kg) on day 1. The negative control group was given 0.8% Tween 80 at 0.4 ml/10 g daily for 11 days. On the 12th day, all mice were sacrificed and the tumor was isolated and weighed. The rate of inhibition of tumor growth was calculated and subject to t-test.

Data set [4] has as its system reticuloendothelial system. Description: Phagocytic function of reticuloendothelial system, serum clearance index of carbon grain. The class given is in vivo, ICR strain mice. As to the method: One group was given N.S. at 20 ml/kg i.g. as a normal control. A positive control group was given CTX i.g. at 25 mg/kg on day 1 and 6.
The test system of data set [5] is UVB-induced skin cancer. The data set is described as follows: Prevention of ultraviolet B ray (UVB)-induced skin cancer, DMBA-initiated. The class given is in vivo, SKH-1 hairless mice. To be noted: topical 200 μl of 10% Sample solution once a day, UVB 180 mJ/cm^2 per day, end of 30 weeks. The protocol: N-(12-methyl-tridecyl)hydrazine hydrochloride (Sample) was resolved with 0.8% Tween resulting in a final concentration of 10%.
Forty female SKH-1 hairless mice were randomly divided into control and test groups of 20 each. Each mouse in both groups was treated topically once with DMBA (5.12 μg dissolved in 200 μl acetone solution) to achieve tumor initiation. One week later (day 8), animals in test group started to receive topical application of 200 μl. Sample solution once a day. The control group received 200 μl Tween 80 solvent instead every day. Thirty minutes after the application, animals in both groups were exposed to UVB (290–320 nm) radiation at the dosage of 180 mJ/cm^2 per day to induce growth of tumor. The animals were evaluated for tumor development at the end of 30 weeks.

For data set [6], the system named is body skin ulcerous wounds (inflammation). Description: Topical application to patients with body skin ulcerous wounds. The class given is in vivo, human. The conditions noted are these: oil state applied directly on inflamed surface. The text has this:
12-Methyl-2-tetradecenoic acid in an oil state was directly applied on the inflamed surface of patients with body skin ulcerous wounds.

Data set [7] concerns oral adnoma and tongue cancer. Description: Topical application to patients of oral adnoma and tongue cancer. The class given is in vivo, human. The conditions noted are these: oil state applied directly on focus surface, about one week later. The source says: 12-Methyl-2-tetradecenoic acid in an oil state was directly applied on the focus surface of oral or tongue to patients of oral adnoma and tongue cancer.

Setting [8] is: Sample 0.1 g/kg i.g. + CTX 25 mg/kg.
The mark [9] stands for this setting: Sample 0.4 g/kg i.g. + CTX 25 mg/kg.
Where [10] appears, read: normal mice, Sample 0.4 g/kg i.g.

Experimental findings from patent US7129366B2, “Group of a novel anti-cancer compounds with specific structure” (Yang's Biochem Co. Ltd., priority 2001, dated 2006) are described below.

Read-outs that look alike come from different tables or passages of the source. Marks after values point to notes of the source that are not given here.

With `CC(C)CCCCCCCCCCCNN.Cl` [Compound 45, N-(12-methyl-tridecyl)hydrazine hydrochloride], the results for the Indices of pancreas in data set [1] (setting [8]), in data set [1] (setting [9]) and in data set [1] (setting [10]) were 2.459 ± 0.799^ mg/10 g avoirdupois, 3.506 ± 1.223^ mg/10 g avoirdupois and 4.541 ± 0.508^a mg/10 g avoirdupois, respectively. The Indices of thymus in data set [1] (setting [8]) is 2.448 ± 0.603^a mg/10 g avoirdupois; in data set [1] (setting [9]) it was 3.307 ± 0.721^a mg/10 g avoirdupois; in data set [1] (setting [10]) it was 3.617 ± 1.334^a mg/10 g avoirdupois. The “indices of immune organs after combined administration” value in data set [1] (mice treated by CTX, combined with Sample) is reported as “these indices increased”. The “effect on the indices of immune organs” value in data set [1] (normal mice, thymus and pancreas (P1,3>0.05)) was “no significant effect”. For the same compound, the “HC50 (X ± SD)” value in data set [2] (setting [8]) was 22.45 ± 4.12; in data set [2] (setting [9]), 24.01 ± 3.87; in data set [2] (normal mouse, Sample 0.4 g/kg i.g.) it was 32.08 ± 5.06. Besides, in data set [2] (normal or immune-compromised mouse), the “effects on serum hemolysinogenesis” value is “no obvious effects”. Besides, the “Inhibition Rate” value was found to be 36.36% in data set [3] (Sample 100 mg/kg i.g. daily for 11 days), 62.73% in data set [3] (Sample 200 mg/kg i.g. daily for 11 days) and 70.00% in data set [3] (Sample 400 mg/kg i.g. daily for 11 days). Further, the “Tumor Weight (X ± SD)” value was 0.70 ± 0.12^b g in data set [3] (Sample 100 mg/kg i.g. daily for 11 days, 12th day); 0.41 ± 0.10^b g in data set [3] (Sample 200 mg/kg i.g. daily for 11 days, 12th day); 0.33 ± 0.10^b g in data set [3] (Sample 400 mg/kg i.g. daily for 11 days, 12th day). In data set [4] (CTX-treated mouse, Sample 100 and 400 mg/kg), the “effect on the clearance of Carbon grain” value is “improve the clearance of Carbon grain in CTX-treated mouse to a certain extent”. In addition, the “K (X ± SD), serum clearance index of carbon grain” value was 0.0433 ± 0.0401 in data set [4] (Sample 100 mg/kg i.g. daily for 9 days + CTX 25 mg/kg on day 1 and 6); 0.0603 ± 0.0371 in data set [4] (Sample 400 mg/kg i.g. daily for 9 days + CTX 25 mg/kg on day 1 and 6); 0.0792 ± 0.0230 in data set [4] (normal mouse, Sample 400 mg/kg i.g. daily for 9 days). In addition, in data set [4] (normal mouse (P1,3>0.05)), the “effect on the Clearance Index of Carbon grain” value is “no obvious effect”. Moreover, in data set [5], the “average size of cancer smaller than control” value is 85%. Also, the “reduction in tumor incidence compared to control group” value in data set [5] was determined as 45%.
Turning to `CCC(C)CCCCCCCC/C=C/C(=O)O` (centres unmarked) [Compound 1, 12-Methyl-2-tetradecenoic acid], in data set [6], the “anti-inflammation function compared to common anti-inflammatory cream” value is on record as “better anti-inflammation function” and the “healing of ulcerous wound” value was “the ulcerous wound healed quickly”. The “effect on focus of oral adnoma and tongue cancer” value in data set [7] is recorded as “the focus reduced, swelling disappeared”.
On to `O=P1(N(CCCl)CCCl)NCCCO1` (centres unmarked) [CTX, cytoxan, reference compound], for which, in data set [1] (CTX 25 mg/kg i.g. alone), the Indices of pancreas was 2.154 ± 1.189^ mg/10 g avoirdupois and the Indices of thymus is on record as 1.296 ± 0.665^ mg/10 g avoirdupois. In data set [2] (CTX 25 mg/kg i.g. alone), the “HC50 (X ± SD)” value amounted to 21.83 ± 4.29. In data set [3] (CTX 25 mg/kg i.g. single dose on day 1), the “Inhibition Rate” value is 71.82%. For the same compound, the “Tumor Weight (X ± SD)” value in data set [3] (CTX 25 mg/kg i.g. single dose on day 1, 12th day) is 0.31 ± 0.11^b g. Further, the “Body Weight after treatment (X ± SD)” value in data set [3] (S180 mice, CTX 25 mg/kg i.g. single dose on day 1) stood at 25.6 ± 1.6 g. Also, the “K (X ± SD), serum clearance index of carbon grain” value in data set [4] (CTX 25 mg/kg i.g. on day 1 and 6 alone) amounted to 0.0260 ± 0.0116.
